# Measured values as given in ChEMBL document CHEMBL3217523, “Design and syntheses of some iminosugar derivatives as potential immunosuppressants” (Medchemcomm, 2011).
# Activity calls are given as the source filed them. The rule behind the calls is not given here.
# Tests used:
# [1] = (§1) Antiproliferative activity against Con A-induced BALB/c mouse splenocytes at 30 uM after 48 hrs by CCK-8 method relative to control; assay type: functional; conditions: Splenocyte
# [2] = Cytotoxicity against BALB/c mouse splenocytes up to 110 uM after 48 hrs by CCK-8 method; assay type: cell-based; conditions: splenocyte
# [3] = Antiproliferative activity against Con A-induced BALB/c mouse splenocytes after 48 hrs by CCK-8 method relative to control; assay type: functional, cell-based; conditions: Splenocyte
# Splenocyte = test: as §1; assay type: functional
SMILES,inhibition at 30 µM [1],further results
CCCCCCCCCN1[C@H](CCl)[C@H](O)[C@@H](O)[C@@H](O)[C@@H]1CO,43.6%,Activity [2]: Non-toxic; IC50 [3]: 45 µM
N#CC[C@H]1N[C@H](CO)[C@H](O)[C@H](O)[C@H]1O,27.9%,
OC[C@H]1N[C@H](CCl)[C@H](O)[C@@H](O)[C@H]1O,20.8%,
CCCCCCCCCN1[C@H](CO)[C@H](O)[C@H](O)[C@@H](O)[C@H]1CCl,54.1%,Activity [2]: Non-toxic; IC50 [3]: 22 µM
CCCCCCN1[C@H](CO)[C@H](O)[C@H](O)[C@@H](O)[C@H]1CCl,38.9%,
OC[C@@H]1N[C@H](CO)[C@H](O)[C@@H](O)[C@H]1O,9.7%,
OCCC[C@H]1N[C@@H](CO)[C@H](O)[C@H](O)[C@H]1O,19.3%,
O=C(O)CC[C@H]1N[C@@H](CO)[C@H](O)[C@H](O)[C@H]1O,6.4%,
O=C(O)CC[C@H]1N[C@H](CO)[C@H](O)[C@H](O)[C@H]1O,4.9%,
OCCC[C@H]1N[C@H](CO)[C@H](O)[C@H](O)[C@H]1O,14.6%,
O=C(O)[C@@H]1N[C@@H](CO)[C@H](O)[C@H](O)[C@H]1O,21.2%,
CCCCCCN1[C@H](CO)[C@H](O)C(O)[C@@H](O)[C@H]1CO (stereo not given in full),25.5%,
O=C(O)[C@H]1N[C@@H](CO)[C@H](O)[C@H](O)[C@H]1O,,inhibition (Splenocyte): inactive
O=C(O)[C@H]1N[C@H](CO)[C@H](O)[C@H](O)[C@H]1O,7.2%,
OC[C@H]1N[C@H](CO)[C@H](O)C(O)[C@H]1O (stereo not given in full),7.8%,
OC[C@H]1C[C@@H](O)[C@@H](O)[C@@H](CO)N1,22.3%,
